Holding throughout (assay type): cell-based, human
For one experiment, the system named is HAD ES-MSC. The experiment in a line: Fibrin-ECM hydrogel construct culture on needle array. To be noted: 20×10^6 cells per ml, 3 weeks of culture, N=8. As for the experimental part:
Monolayer cultured ES-MSC were suspended in a hydrogel wafer composed of collagen II (Innovative Research Inc. Novi, MI), hyaluronate (Supartz FX sodium hyaluronate, Seikagaku Corp. Tokyo, Japan), chondroitin sulfate (Sigma-Aldrich) and fibrin (Baxter Healthcare, Deerfield, IL) at a density of 20×10^6 cells per ml. The fibrinogen and thrombin components were prepared separately. To each fibrinogen component, 2 mg/ml sodium hyaluronate, 2 mg/ml chondroitin sulfate and 6 mg/ml collagen II was added (2× concentration of final). Cells were added to the thrombin component at a density of 40×10^6 cells per ml. Thrombin and fibrinogen components in individual syringes were attached to a Baxter DUO mixing syringe and extruded to form the coagulated constructs. The constructs were either directly implanted into ex vivo cartilage tissue or coagulated in 6 well tissue culture plates for 4 to 8 minutes before 4-6 ml of chondrogenic medium was added. To prevent shrinkage of the constructs during culture, the gels were held on AdminPatch microneedle arrays (AdminMed, Sunnyvale, CA) for the duration of their culture.
Cell pellets and explants were fixed in Z-Fix (3.7% formaldehyde, Anatech Ltd., Battle Creek, MI), processed for embedding in paraffin, and cut into 4 μm-thick sections. Sections were stained with Safranin-O and Fast Green to visualize glycosaminoglycan distribution in the tissues. […]

A further experiment relates to H9 ES-MSC. The experiment in a line: Pellet culture chondrogenesis, histology and immunohistochemistry. The following applies: 3 weeks, Safranin-O, collagen type I and II. As for the experimental part:
Monolayer-expanded ES-MSC (passage 2-5) were detached using Accutase® and 0.5×10^6 cells in 0.5 ml of chondrogenic medium were centrifuged at 900 rpm (~770 G) for 5 minutes to form high-density pellets. At least 5-6 pellets, for each ES-MSC condition, were cultured in serum-free chondrogenic medium consisting of Dulbecco's Modified Eagle Medium (Mediatech Inc., Manassas, VA), 1×ITS supplement (Sigma-Aldrich, St. Louis, MO), 100 nM Dexamethasone (Sigma), 1.25 mg/ml human serum albumin (Bayer, Leverkusen, Germany), 100 μM ascorbic acid 2-phosphate (Sigma), 1% penicillin/streptomycin/gentamycin (PSG, Gibco, Carlsbad, CA), and 10 ng/ml TGFβ3 (PeproTech, Rocky Hill, NJ). Pellets for ex vivo implantation were cultured for 3 days before implantation; pellets for histologic or gene expression analysis were maintained in culture for 3 weeks with media changes every 3 to 4 days.
Cell pellets and explants were fixed in Z-Fix (3.7% formaldehyde, Anatech Ltd., Battle Creek, MI), processed for embedding in paraffin, and cut into 4 μm-thick sections. Sections were stained with Safranin-O and Fast Green to visualize glycosaminoglycan distribution in the tissues. Alzarin Red S staining was used to detect the presence of mineralized matrix.
For assessment of collagen types I and II, sections were pretreated with pepsin (Digest-All 3, Thermo Fisher Scientific) for 9 minutes at 37° C. in a humid chamber before incubation at 4° C. for 12 to 16 hours with the following primary antibodies: rabbit anti-human collagen type I antibody (Ab 34710, Abcam, Cambridge, MA) 1 μg/ml; or mouse anti-human collagen type II (II-II6B3, Hybridoma Bank, University of Iowa) 2 μg/ml. For color development, the ImmPRESS secondary DAB (brown) or AP (red) kits (Vector Laboratories, Burlingame, CA) was used. Isotype controls were used to monitor non-specific staining.

The test system of a further experiment is H9 ESC. The experiment in a line: Gene expression profiling of ES-MSC relative to undifferentiated ESC. The procedure:
An overview of the differentiation process is provided in FIG. 1, panel K. To create cell clusters or embryoid bodies of uniform size, ESCs were removed from CellStart culture using Accutase® for 2-5 minutes until single cells were observed. Cells (2.5-3×10^5 cells per ml) were suspended in StemPro human ESC serum free medium (ThermoFisher) with 10 μM Y-27632 (EMD Chemicals, Gibbstown, NJ) and 40 ng/ml FGF (Life Technologies, Carlsbad, CA) in a 125 ml spinner culture flask (Corning Inc., Corning, NY) on a magnetic stirrer (CimarecTM Biosystem Slow-Speed Stirrer, ThermoFisher) at 70 rpm for 24 hours at 37° C. with 5% CO2 to form small cell clusters (minimum total cells was 7.5×10^6 in 30 ml). After 24 hours, the cell clusters were suspended at 2.5-3×10^5 cells per ml in ultra-low adherent 6 well plates (Corning) in […] free medium (ThermoFisher) supplemented with 2 mM L-glutamine (ThermoFisher Scientific), 50 μg/ml Ascorbic acid (Stemcell Technologies, Vancouver, Canada) and 1.8 μl/ml ITS-G (100× Insulin-Transferrin-Selenium; ThermoFisher); termed as “complete SP-34 medium”. […] Total RNA was extracted from using the RNeasy kit as recommended by the manufacturer (QIAGEN, Valencia, CA). The High-Capacity cDNA Reverse Transcription Kit (Applied Biosystems, Foster City, California) kit was used to make cDNA and the following verified primer/probe assays were purchased from Applied Biosystems. Expression of the following genes was quantified POU5F1/OCT4 and SOX2 (for pluripotency); FOXA1 and SOX17 (for endoderm); NES and PAX6 (for ectoderm); NKX2-5, MSX1, NCAM1, and SOX9 (for mesoderm); ITGB1/CD29 (for MSC phenotype); and COL1A1, COL2A1, COL10A1, COMP, ACAN, and SOX9 and RUNX2 (for chondrogenesis). Gene expression was normalized to GAPDH as previously reported. Undifferentiated ESC served as a baseline for relative changes in gene expression in differentiated ES-MSC cells. Differentiated ES-MSC cells in monolayer served as baseline for changes in gene expression in pellets or hydrogel constructs.

A further experiment deals with ES-MSC microspheroids. The experiment in a line: Microspheroid building chamber neo-cartilage formation. To be noted: 3 weeks in chamber. From the text: Using a microspheroid building block approach, ES-MSC derived from treatment with ALK-5 inhibitor SB525334, as described in Example 1, were used to produce bone and cartilage (osteochondral) tissues. […] The OC tissue unit was implanted into an ex vivo model to develop biphasic tissue with an upper cartilage and lower calcified cartilage layer (FIG. 11, panels J-M). Both upper and lower tissues were Safranin O and collagen type II positive (FIG. 11, panels J-K), while the lower tissue producing calcified neo tissue (FIG. 11, panel L; von Kossa positive) and osteopontin (FIG. 11, panel M).

The mark [1] stands for this setting: ES-MSC relative to undifferentiated ESC.

Each structure is given as a SMILES string.

For the molecule `NC(=O)c1ccc(-c2nc(-c3ccc4c(c3)OCO4)c(-c3ccccn3)[nH]2)cc1` [SB431542], the “cartilaginous tissue in fibrin-ECM construct (Safranin O fast green)” value with HAD ES-MSC is recorded as “production of cartilaginous tissue”. For the same molecule, the “cartilage-like tissue formation in high density pellets” value in the experiment on H9 ES-MSC was “consistently produced cartilage like-tissue”. Besides, in the experiment with H9 ESC (setting [1]), the “expression of SOX9 and COL2A1 (chondroprogenitor phenotype)” value is listed as “Increased expression”; the “expression of mesoderm specific markers (NCAM1, MSX1, NKX2-5) and MSC marker (ITGB1)” value is given as “significantly upregulated”. Further, the “expression of pluripotent markers POU5F1 (OCT4) and SOX2” value in the experiment on H9 ESC (H9 ES-MSC relative to undifferentiated ESC) is “significantly down regulated”.

Turning to `Cc1cccc(-c2[nH]c(C(C)(C)C)nc2-c2ccc3nccnc3c2)n1` [SB525334], in the experiment with ES-MSC microspheroids, the “cartilage GAGs staining of neo-cartilage tissue” value is “positive for cartilage GAGs” and the “collagen type II staining of neo-cartilage tissue” value is listed as “positive for collagen type II”.

The values are drawn from patent publication US20260242738A1, “ALK5 INHIBITORS FOR EFFICIENT DERIVATION OF MESENCHYMAL STEM CELLS FROM EMBRYONIC STEM CELLS” (SCRIPPS HEALTH, priority 2022, published 2026).
